Results on two molecules are retold here after publication PMC5679017 (Journal of medicinal chemistry, 2016).

Experiment [1] relates to mice. The following applies: 2 nmol dose; 3, 4, 5, 6, 16 and 24 hours after administration; cited from earlier work.
Experiment [2] concerns melanocortin receptors. The following applies: cited from earlier work.
The subject of experiment [3] is mice. Briefly: Cannula placement validation with hPYY, food intake. The following applies: 2.5 μg human PYY3-36, validated cannulated mice (saline: 0.42 ±0.07 g). In kind it is in vivo, mouse.

Regarding `CC(=O)N[C@@H](Cc1c[nH]cn1)C(=O)N[C@H](Cc1ccccc1)C(=O)N[C@@H](CCCNC(=N)N)C(=O)N[C@@H](Cc1c[nH]c2ccccc12)C(N)=O` [Compound 1, Ac-His-DPhe-Arg-Trp-NH2], the “food intake after ICV administration (previous study)” value in experiment [1] is given as “decrease food intake”. The “binding affinity at the melanocortin receptors (reported)” value in experiment [2] was “high nanomolar to low micromolar”. On to “hPYY: human PYY3-36 (Bachem) used to verify cannula placement”, for which the “food eaten four hours after administration” value in experiment [3] is on record as 1.79 ± 0.13 g.
